molecular target: T1, Phospholipase A2, membrane associated (Homo sapiens, UniProt P14555); assay: Compound was tested for in vitro activity against S-phospholipase A2 (s-PLA2) isolated from human platelets
T1 sequence (P14555 whole entry): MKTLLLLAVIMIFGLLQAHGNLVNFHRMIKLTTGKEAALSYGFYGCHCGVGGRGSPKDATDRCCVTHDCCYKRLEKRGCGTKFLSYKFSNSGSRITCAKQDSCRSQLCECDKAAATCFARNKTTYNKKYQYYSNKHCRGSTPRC

| IC50 | SMILES |
| --- | --- |
| 65 nM | O=C(O)C[C@@H](CSc1ccc(Cc2ccccc2)cc1)NC(=O)CCCCCCc1ccccc1 |
| 1850 nM | CCCCCC/C=C/CC(=O)N[C@@H](CCC(=O)O)CSc1ccc2ccccc2c1 |
| 12000 nM | CCCCCC/C=C/CC(=O)N[C@H](CCC(=O)O)CSc1ccc2ccccc2c1 |
| 3800 nM | CCCCCC/C=C/CC(=O)N[C@H](CSc1ccc(Cc2ccccc2)cc1)CC(=O)O |
